Assay results reported in article PMC8287724, “Reducing Auditory Nerve Excitability by Acute Antagonism of Ca^2+-Permeable AMPA Receptors” (Frontiers in Synaptic Neuroscience, 2021).

Legend:
[1] = tested on: ANF postsynaptic terminals; design: method as in Puel et al., 1994; conditions: chemical lesion, basal cochlear turn perfusion ref Puel et al., 1994; cited from earlier work
[2] = tested on: ribbon synapses and ANF dendrites in the inner spiral plexus; assay: Apical cochlear perfusion of kainic acid, immunohistofluorescence and confocal microscopy; assay type: in vivo, guinea pig; conditions: 2 mM in artificial perilymph, apical perfusion of scala tympani
Protocol: Following cardiac perfusion of 4% PFA in 0.1 M phosphate buffer and cervical dislocation, the temporal bone was immediately harvested, and the cochlea was isolated. Each cochlea was post-fixed for 20 min at 4°C in a dish with 4% PFA, where a small fenestration was made in the round window, oval window, and the apex of each cochlea to gently flush with 1 mL of fixative. Each cochlea was then decalcified in 10% EDTA at room temperature for 6 h, exchanging EDTA every 2 h. The decalcified outer bone was removed to reveal the underlying cochlear spiral. Small pieces of cochlear turns were placed in buffer overnight at 4°C in Triton X-100 with donkey serum. […]
The method of apical intracochlear drug delivery has previously been well-detailed (Lichtenhan et al., [2016a]). […] Response waveforms were recorded immediately prior to apical drug perfusion to establish a baseline, throughout perfusion which took 6 min, and then immediately after perfusion, from a round window electrode. […]

[3] = tested on: cochlear afferent synapses; design: method as in earlier work; conditions: ref Robertson, 1983; Puel et al., 1998; Furman et al., 2013; Hickman et al., 2020; cited from earlier work

Row | Compound | effect of pre-perfusion on ANF terminal swelling [1] | also measured
1 | NC(CCCP(=O)(O)O)C(=O)O [D-AP5] | not | –
2 | O=c1[nH]c2cc([N+](=O)[O-])c([N+](=O)[O-])cc2[nH]c1=O [DNQX] | prevented | –
3 | C=C(C)[C@H]1CN[C@H](C(=O)O)[C@H]1CC(=O)O [KA, kainic acid] | – | effect on innervation and ribbon synapses [2]: void of innervation in the ISP and ribbon synapse disintegration
4 | O=C(O)c1cc(=O)c2ccccc2[nH]1 [kynurenic acid] | – | effect on synapse loss and osmotic damage after synaptopathic noise exposure [3]: blocked
